According to patent US12343337B2, “Compounds for increasing neural plasticity” (THE REGENTS OF THE UNIVERSITY OF CALIFORNIA, priority 2016, dated 2025):

B1: BDNF: brain-derived neurotrophic factor, recombinant neurotrophin, Sigma-Aldrich (protein, UniProt P23560 19-247, looked up)
Neurotrophic factor BDNF …: APMKEANIRGQGGLAYPGVRTHGTLESVNGPKAGSRGLTSLADTFEHVIEELLDEDQKVRPNEENNKDADLYTSRVMLSSQVPLEPPLLFLLEEYKNYLDAANMSMRVRRHSDPARRGELSVCDSISEWVTAADKKTAVDMSGGTVTVLEKVPVSKGQLKQYFYETKCNPMGYTKEGCRGIDKRHWNSQCRTTQSYVRALTMDSKKRIGWRFIRIDTSCVCTLTIKRGR

Tests used:
[1] = tested on: cultured embryonic rat cortical neurons; assay: Neuritogenesis experiments (Sholl analysis) in cortical cultures; assay type: cell-based; conditions: for promoting neuritogenesis: cultured embryonic rat cortical neurons, DIV6, 10 μM (0.1% DMSO) unless noted otherwise, 72 h treatment, FIGS. 1B-1D, 2B-2D
Experimental: (§1) Primary cortical cultures were prepared using tissue from embryonic day 18 (E18) Sprague Dawley rats. Cells were plated at various densities on poly-D-lysine coated plates depending on the specific experiment (vide infra). Plating media consisted of 10% heat-inactivated FBS (Life Technologies), 1% penicillin-streptomycin (Life Technologies), and 0.5 mM glutamine (Life Technologies) in Neurobasal (Life Technologies). After 15-24 h, the media was removed and exchanged for replacement media containing 1×B27 supplement (Life Technologies), 1% penicillin-streptomycin, 0.5 mM glutamine, 12.5 μM glutamate, and Neurobasal. After 96 h, 50% of the media was removed and replaced with feed media containing 1×B27 supplement, 1% penicillin-streptomycin, and 0.5 mM glutamine. Once per week until the cultures had reached sufficient maturity for experiments, 50% of the culture media was removed and replaced with feed media, with an additional 20% by volume being added to account for evaporation. For experiments using antagonists/inhibitors, cells were pretreated with ANA-12 (10 μM), rapamycin (100 nM), and ketanserin (100 μM) for 10 min prior to the addition of test compounds. The final DMSO concentration of these experiments was 0.2%. The neurons used in each cellular experiment were taken from at least two different treatment wells and the wells were randomized to account for plate effects. All of the cellular experiments were replicated on at least two occasions by two or more experimenters.
All compounds were dissolved in DMSO and diluted 1:1000 with the exception that BDNF was dissolved in water. Cells were treated with the compound at a final concentration of 90 μM (0.1% DMSO) while all other compounds were treated at 10 μM (0.1% DMSO) unless noted otherwise. For in vivo studies, the compound was dissolved in sterile 0.9% saline and administered intraperitoneally at a dose of 10 mg/kg and an injection volume of 10 mL/kg.
After 3 days in vitro (DIV 3), approximately 50,000 cells/well in poly-D-lysine coated 24 well plates were treated. Treatment was accomplished by first diluting DMSO stock solutions of compounds 1:10 in Neurobasal followed by a 1:100 dilution into each well (total dilution=1:1000). After 72 h, cells were fixed by removing 80% of the media and replacing it with a volume of 4% aqueous paraformaldehyde (Alfa Aesar) equal to 50% of the working volume of the well. Then, the cells were allowed to sit for 20 min at room temperature before the fixative was aspirated and each well washed twice with DPBS. Cells were permeabilized using 0.2% Triton X-100 (ThermoFisher) in DPBS for 20 minutes at room temperature without shaking. Plates were blocked with antibody diluting buffer (ADB) containing 2% bovine serum albumin (BSA) in DPBS for 1 h at room temperature. Then, plates were incubated overnight at 4° C. with gentle shaking in ADB and a chicken anti-MAP2 antibody (1:10,000; EnCor, CPCA-MAP2). The next day, plates were washed three times with DPBS and once with 2% ADB in DPBS. Plates were incubated for 1 h at room temperature in ADB containing an anti-chicken IgG secondary antibody conjugated to Alexa Fluor 488 (Life Technologies, 1:500) and washed five times with DPBS. After the final wash, 500 μL of DPBS was added per well and imaged on a Leica inverted epifluorescence microscope at 40× magnification. Images were analyzed using the Simple Neurite Tracer and Sholl analysis plug-ins for ImageJ Fiji (version 1.51N). All images were taken and analyzed by an experimenter blinded to treatment conditions.

[2] = tested on: cultured embryonic rat cortical neurons; assay: Spinogenesis experiments (spine density) in cortical cultures; assay type: cell-based; conditions: cortical cultures treated for 24 h at DIV 18; FIG. 1E and FIG. 2E
Experimental: as §1, with “The final DMSO concentration of these experiments was 0.2%. The neurons used in each cellular experiment were taken from at least two different treatment wells and the wells were randomized to account for plate effects. All of the cellular experiments were replicated on at least two occasions by two or more experimenters.” left out
Cells were plated at a density of 35,000 cells/well on glass coverslips in 24 well plates. […] Dendritic spines were counted manually by a trained experimenter who was blinded to the treatment conditions.

[3] = tested on: BDNF; assay: BDNF ELISA assay in cortical neurons; assay type: cell-based, rat
Experimental: as §1
Cortical cultures were grown in 6-well plates (600,000 cells per well). At DIV 17-18, all media was removed and replaced with fresh Neurobasal. After 4 h, each well was treated with compound dissolved in DMSO (1:1000) for 24 h. After the treatment period, the media was removed and the cells washed once with ice-cold DPBS. To each well was added 200 μL of Cell Extraction Buffer (Life Technologies) supplemented with cOmplete and PhoSTOP inhibitors, and incubated on ice for 5-10 min. Plates were scrapped and the contents collected. […]

| Molecule | promoting neuritogenesis [1] | spinogenesis in cortical cultures [2] | also measured |
| --- | --- | --- | --- |
| CCN(CC)C(=O)N[C@H]1C=C2c3cccc4[nH]cc(c34)C[C@H]2N(C)C1 [lisuride, Lisuride] | capable of robustly promoting neuritogenesis | increased spinogenesis | dose-response of effects on neurite outgrowth ([1]; cortical cultures, dose response was not clearly observed, FIGS. 3A and 3B): exhibiting activity across 8-orders of magnitude into the femtomolar range; BDNF protein levels in the presence of TrkB antagonist ANA-12 ([3]; cortical cultures, 24 h treatment, with ANA-12, FIG. 6): negates the increase in BDNF protein levels; protein levels of BDNF protein ([3]; cortical neurons, after 24 hours treatment, ELISA, FIG. 5): increased the protein levels of BDNF protein; translation of BDNF on co-treatment with sigma antagonist BD1063 ([3]; cultured cortical neurons co-treated with BD1063, 24 hour treatment, FIG. 7): completely blocked the increased translation of BDNF |
| CN(C)CCc1c[nH]c2cc(F)ccc12 [6-fluoro-DMT, 6-fluoro-N,N-dimethyltryptamine] | capable of robustly promoting neuritogenesis | – | – |
| CN(C)CCc1c[nH]c2ccc(Cn3cncn3)cc12 [rizatriptan, Rizatriptan] | capable of robustly promoting neuritogenesis | increased spinogenesis | – |
| COc1ccc2c(CCN(C)C)c[nH]c2c1 [6-methoxy-DMT, 6-methoxy-N,N-dimethyltryptamine] | capable of robustly promoting neuritogenesis | – | – |
| B1 | – | – | dose response of effects on dendritic arbor complexity ([1]; recombinant BDNF 50 ng/mL vs 100-fold dilution, FIG. 4): significantly less potent following a 100-fold dilution |
